Laboratory results reported in patent US10188747B2, “Methods and compositions for the treatment of cancer” (THE GENERAL HOSPITAL CORPORATION, priority 2014, dated 2019).

Experiments:
[1] = tested on: HKCs; test: Treatment of differentiating HKCs with ER ligands, RT-qPCR and immunoblot analysis; type: cell-based, human; conditions: differentiating HKCs (100% confluence), 72 hours; 10 nM E2, 100 nM DPN, 100 nM PPT, 10 nM fulvestrant vs DMSO
Excerpt: (§1) FIG. 10B depicts graphs of expression of CYP1B1 determined by RT-qPCR in lung and keratinocyte-derived SCC cell lines in parallel with HBECs and HKCs, respectively. […] Data are presented as mean fold change of fluorescence intensity±SD (*P<0.05). FIG. 10D depicts graphs of indicated SCC cells plated in duplicate on Matrigel precoated chambers with spheroid number quantification 10 days later by ImageJ™ analysis of whole-cell images. Data are duplicates±SD (*P<0.05).
(§2) Besides estrogen, other agonists have been developed with elevated specificity for either the ERα or ERß receptors (43).
(§3) Conditions for RT-qPCR, immunoblotting, immunofluorescence and ChIP assays were as previously reported (9, 42). For immunoblotting, unless otherwise indicated, cells were lysed in SDS sample buffer (50 mM Tris-HCl pH 6.8, 2% SDS, 10% glycerol, 0.2 unit nuclease) and protein separation was done in 15-well 4-12% NuPAGE Bis-Tris polyacrylamide gels (Invitrogen). Equal loading controls were done by re-probing the same immunoblots unless otherwise indicated. All assays were done at least twice, with two HKC strains or epidermal samples of independent origin.

[2] = tested on: SCC cell lines; test: Treatment of a panel of SCC cell lines with DPN, Notch1 and differentiation marker expression; type: cell-based, human
Excerpt: as §1, §2, §3

[3] = tested on: SCC cells; test: Alamar blue cell density assays of SCC cells; type: cell-based, human; conditions: Alamar blue density assay, vs DMSO, refreshed every other day
Excerpt: as §1
Clonogenicity and Alamar Blue assays were as reported (60). For spheroid assays, 8-well chamber slides were coated with matrigel (BDbiosciences, CA; 50 μl per well) and incubated at 37° C. for 20 minutes to allow matrigel to polymerize. SCC cells were brought into suspension in normal culture medium plus 1% matrigel (7000 cells/ml) and added in triplicates to the pre-coated chamber slides (300 μl of cell mixture per well). Medium was refreshed every other day. For organotypic cultures, HKCs were infected with shRNA expressing lentiviruses followed, 48 hours later, by selection for puromycin ([…]) resistance. Selected keratinocyte cultures were reseeded onto collagen gels with embedded J2-3T3 fibroblasts and cultured at the air-liquid interface as previously described (61). […]

[4] = tested on: skin, oral, and lung SCC cells; test: Spheroid formation assays of SCC cells in Matrigel; type: cell-based, human; conditions: spheroid number 10 days later, vs DMSO
Excerpt: as §1
In vitro and animal model assays are provided herein which allow the assessment of a given dose of an agonist as described herein. By way of non-limiting example, the effects of a dose of an agonist can be assessed by spheroid assay. A non-limiting example of a protocol for such an assay is as follows: 8-well chamber slides are coated with matrigel (BDbiosciences, CA; 50 μl per well) and incubated at 37° C. for 20 minutes to allow matrigel to polymerize. SCC cells are brought into suspension in normal culture medium plus 1% matrigel (7000 cells/ml) and added in triplicates to the pre-coated chamber slides (300 μl of cell mixture per well). Medium is refreshed every other day. An agonist is added to the medium and cell growth and proliferation measured over time, e.g. by microscopy.
Clonogenicity and Alamar Blue assays were as reported (60). […]

[5] = tested on: SCCO13 cells; test: Intradermal tumorigenicity assay, ERß agonist study; type: in vivo, NOD/SCID mice
Procedure: SCC013 cells were injected intradermally in the left supra-scapular region of NOD/SCID mice (1×10^6 cells per injection). […] Animals were sacrificed 10 days later. Tumor weight and volume were measured, followed by determination of Ki67-labeling index by immunofluorescence analysis of histological section. *P<0.05.
Lenti-virally-infected SCC13, SCCO13 cells and retro-virally infected H2170 cells were suspended in matrigel followed by intra-dermal injection (1.0×10^6 cells in 150 μl per injection) into the back skin of 6 weeks old NOD/SCID mice (Taconic Farms Inc. Germantown, N.Y.) as described (9, 42). To minimize the individual animal variations, cells infected with control and ERß expressing viruses were injected in parallel in the right and left flank of the same mice. Mice were sacrificed for tissue analysis 3 weeks (SCC13 and SCCO13) or 1 week (H2170) after injection. For ERß agonist studies, SCCO13 cells were injected intra-dermally into NOD/SCID mice as described above.

[6] = tested on: HKCs; test: DAPT treatment of HKCs infected with Dlx5- and ERβ-expressing retroviruses, RT-qPCR; type: cell-based, human; conditions: DAPT 10 μM, added 24 hours after infection, analysis 48 hours later
Procedure: HKCs under differentiating conditions (100% confluence for 3 days: 100% cf+3D) were analyzed in parallel as point of reference. […] FIG. 5B depicts graphs of HKCs with or without infection with EGR3-, DLX5-, and ERβ-expressing retroviruses as in the previous panel were treated with DAPT (10 μM) or DMSO control at 24 hours after infection followed, 48 hours later, by RT-qPCR analysis of involucrin gene expression, with 36β4 for normalization. As an alternative, HKCs stably infected with a shRNA lentivirus against NOTCH1 or empty vector control were superinfected with the EGR3, DLX5, and ERβ expressing retroviruses, followed 72 hours later by RT-qPCR analysis of the same genes. FIG. 5C depicts graphs of HKCs with or without infection with EGR3-, DLX5-, and ERβ-expressing retroviruses as in FIG. 5A were analyzed, 72 hours after infection, by RT-qPCR of the indicated genes. *P<0.001.
as §3, with “All assays were done at least twice, with two HKC strains or epidermal samples of independent origin.” left out

[7] = tested on: SCC13 (skin), SW900 (lung), and SCCO13 (oral) SCC cells; test: DAPT treatment of SCC cells infected with ERβ-expressing viral vectors, RT-qPCR; type: cell-based, human; conditions: DAPT 10 μM, added 24 hours after infection, analysis 72 hours later; involucrin and keratin 10
Procedure: FIG. 9A depicts results of SCC cell lines infected with ERβ-expressing viral vectors versus controls as in FIGS. 8A-8E were analyzed for expression of the indicated proteins by immunoblotting. FIG. 9B depicts graphs of SCC13 (skin), SW900 (lung), and SCCO13 (oral) SCC cells infected with ERβ-expressing and control viral vectors were treated 24 hours after infection with DAPT (10 μM) or DMSO control followed, 72 hours later, by RT-qPCR analysis of involucrin and keratin 10 differentiation marker expression. *P<0.05.
To directly assess the impact of increased ERß signaling in SCC outgrowth, a panel of skin, oral and lung SCC cell lines were infected with ERß expressing versus control viruses. […] To test the in vivo impact of increased ERß expression, representative cell lines from skin (SCC13), head/neck (SCCO13) and lung SCCs (H2170) were assessed by intra-dermal tumorigenicity assays in immune compromised mice (42). Cells infected with the ERß expressing lentivirus formed tumors of similar size as the controls, but enhanced Notch1 expression and differentiation (FIGS. 9C-9D).
Conditions for RT-qPCR, immunoblotting, immunofluorescence and ChIP assays were as previously reported (9, 42). […]

[8] = SCCO13 tumors, 20 mg/kg daily, data not shown

For `C[C@]12CC[C@@H]3c4ccc(O)cc4CC[C@H]3[C@@H]1CC[C@@H]2O` [17β-estradiol], the Notch1 expression [1] was “induction” and the differentiation marker expression [1] was “induction”.

For `C[C@]12CC[C@@H]3c4ccc(O)cc4C[C@@H](CCCCCCCCC[S+]([O-])CCCC(F)(F)C(F)(F)F)[C@H]3[C@@H]1CC[C@@H]2O` (some centres unmarked) [Fulvestrant], the Notch1 expression [1] was “suppressed” and the differentiation marker expression [1] was “suppressed”.

`N#CC(Cc1ccc(O)cc1)c1ccc(O)cc1` (centres unmarked) [DPN, 2,3-bis(4-Hydroxyphenyl)-propionitrile] was tested, and the Notch1 expression [1] was “induction”, the differentiation marker expression [1] was “induction” and the Notch1 expression [2] was “induction”. For the same compound, the differentiation marker expression [2] was “induction”, the “proliferation of SCC cell lines” value [3] was “significantly suppressed” and the “sphere forming capability of SCC cell lines” value [4] was “significantly suppressed”. For the same compound, the tumor size ([5]; SCCO13 cells intradermally, 20 mg/kg intraperitoneally daily for 10 days, vs DMSO vehicle) was “significantly smaller size”, the “Notch1 expression in tumors” value [5, 8] was “increased” and the “differentiation marker expression in tumors” value [5, 8] was “increased”.

In the case of `CCCc1c(-c2ccc(O)cc2)nn(-c2ccc(O)cc2)c1-c1ccc(O)cc1` [PPT, 1,3,5-Tris(4-hydroxyphenyl)-4-propyl-1H-pyrazole], the Notch1 expression [1] is reported as “Little or no induction” and the differentiation marker expression [1] is reported as “Little or no induction”.

For `C[C@H](NC(=O)Cc1cc(F)cc(F)c1)C(=O)N[C@H](C(=O)OC(C)(C)C)c1ccccc1` [DAPT], the “induction of Hey1 and involucrin by enhanced expression of Dlx5 and ERβ” value [6] was “prevented to a large extent” and the “induction of differentiation marker expression by increased ERß expression” value [7] was “significantly counteracted”.
